Measurements as given in patent US9023837B2, “Androgen induced oxidative stress inhibitors” (Colby Pharmaceutical Company, priority 2010, dated 2015).
Where “and” joins values, the source holds several entries; their conditions need not be identical. Identical values can stand only once. Entries after “also recorded” stand apart in the source; their conditions may differ.

Experiments:
SSAT mRNA = SSAT mRNA by qRT-PCR in LNCaP cells; assay type: cell-based, human
Method: Quantitative RT-PCR analysis of SSAT mRNA levels are performed.
The effect of AR activation by androgen on transcriptional activity of full length SSAT promoter and the necessity of JunD for such effect was studied in LNCaP cells stably transfected with either junD silenced (siJunD) or control vector that were then transiently transfected with a full length SSAT promoter-firefly luciferase reporter vector (FLSSAT-luc) followed by androgen treatment (FIGS. 4A,B). Androgen treatment (1 nM R1881) caused a significant>16-fold increase in SSAT promoter activity in vector control LNCaP cells (Control) compared to corresponding untreated cells (FIG. 4A, P=0.03). […] There is an androgen-induced increase in SSAT mRNA (˜10-fold) in siJunD cells, but this increase is much less than that observed in vector control cells (˜25-fold).

JunD-AR complex = JunD-AR complex (Homo sapiens, UniProt P10275); conditions: Hep3B, 2 nM R1881, 48 h
Chain of JunD-AR complex (P10275 whole entry): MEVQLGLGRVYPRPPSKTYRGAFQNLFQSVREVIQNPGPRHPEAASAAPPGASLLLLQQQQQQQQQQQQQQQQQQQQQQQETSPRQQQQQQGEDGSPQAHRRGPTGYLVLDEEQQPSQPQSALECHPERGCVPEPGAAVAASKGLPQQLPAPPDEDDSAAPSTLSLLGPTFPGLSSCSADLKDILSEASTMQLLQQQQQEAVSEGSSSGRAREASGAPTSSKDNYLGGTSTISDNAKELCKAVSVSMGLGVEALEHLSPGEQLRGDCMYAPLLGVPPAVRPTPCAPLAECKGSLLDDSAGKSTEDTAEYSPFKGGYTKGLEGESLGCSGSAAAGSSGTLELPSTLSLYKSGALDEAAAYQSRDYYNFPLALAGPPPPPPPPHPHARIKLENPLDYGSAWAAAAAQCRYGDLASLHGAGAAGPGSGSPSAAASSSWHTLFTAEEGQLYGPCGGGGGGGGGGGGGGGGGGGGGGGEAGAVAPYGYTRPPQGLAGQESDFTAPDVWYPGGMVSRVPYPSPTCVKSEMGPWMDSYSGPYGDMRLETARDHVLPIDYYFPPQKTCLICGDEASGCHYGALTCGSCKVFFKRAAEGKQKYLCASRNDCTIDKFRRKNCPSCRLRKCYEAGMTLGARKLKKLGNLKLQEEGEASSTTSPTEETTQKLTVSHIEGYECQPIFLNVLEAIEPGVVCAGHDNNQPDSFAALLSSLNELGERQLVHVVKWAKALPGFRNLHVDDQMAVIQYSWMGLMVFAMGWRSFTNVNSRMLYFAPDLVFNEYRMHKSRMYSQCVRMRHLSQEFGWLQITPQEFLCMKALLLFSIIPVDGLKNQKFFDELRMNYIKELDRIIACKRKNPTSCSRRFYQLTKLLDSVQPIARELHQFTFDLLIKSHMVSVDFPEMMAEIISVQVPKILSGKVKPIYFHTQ
Chain of JunD-AR complex (P17535 whole entry partner): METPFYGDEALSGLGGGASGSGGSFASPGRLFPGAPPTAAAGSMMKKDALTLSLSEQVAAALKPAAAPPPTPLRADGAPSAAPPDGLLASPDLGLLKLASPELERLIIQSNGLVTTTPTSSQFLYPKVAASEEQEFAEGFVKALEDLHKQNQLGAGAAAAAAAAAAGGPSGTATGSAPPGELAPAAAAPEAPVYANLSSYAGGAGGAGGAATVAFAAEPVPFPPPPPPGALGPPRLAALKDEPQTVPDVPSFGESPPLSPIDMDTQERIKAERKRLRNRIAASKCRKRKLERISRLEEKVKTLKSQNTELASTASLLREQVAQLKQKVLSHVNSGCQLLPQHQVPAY
Method: The two vectors were co-transfected into Hep3B liver carcinoma cells with no AR background.
5×10^5 Hep3B cells were seeded, then one day later co-transfected with 3 g each of Gluc1-AR and JunD-Gluc2 constructs, or transfected with Gluc1-AR or JunD-Gluc2 alone as negative controls using Lipofectamine 2000 reagent (Invitrogen), following the manufacturer-supplied protocol. Two to three hours after transfection, cells were washed and refed DMEM without serum and treated with 2 nM R1881 for 48 h prior to collecting cell lysates. Corresponding untreated cells were used as negative controls.
Gaussia luciferase activity was measured in 25 μl of Hep3B cell lysates from R1881-treated or untreated control cells using a Gaussia luciferase assay kit from New England Biolabs (Ipswich, Mass.), following the manufacturer-supplied protocol.

AR-JunD immunocomplex = AR-JunD immunocomplex (Homo sapiens, UniProt P10275, T878A); conditions: IP:JunD/WB:AR, 1 nM R1881, 72 h, normalized to β-actin
Chain of AR-JunD immunocomplex (P10275 whole entry T878A): as the sequence (P10275 whole entry) above, with T878A counted along it
Chain of AR-JunD immunocomplex (P17535 whole entry partner): as the sequence (P17535 whole entry partner) above
Method: For whole cell lysates, LNCaP cells were lysed using modified RIPA buffer containing complete protease inhibitors (Roche Applied Sciences, Indianapolis, Ind.). Nuclear and cytoplasmic fractions were prepared and checked for purity using NE-PER Nuclear and Cytoplasmic extraction reagents (Thermo Scientific, Pierce Biotechnology, Rockford, Ill.) following manufacturer-supplied protocols. For immunoprecipitation, lysates were pre-cleared by incubation with 50% Protein A-agarose slurry (Pierce, Rockford, Ill.). Six g of AR antibody and 500 μl pre-cleared lysate (500 μg total protein) were mixed and rocked overnight at 4° C. The immunocomplex was captured with 100 μl of 50% protein A-agarose slurry, then analyzed by western blotting using JunD antibody. The same immunoprecipitation procedure was repeated for capturing the immunocomplex using JunD antibody and western blotting using AR antibody. Proper controls with IgG and protein A-agarose were run in parallel.
To specifically investigate the effect of androgen, LNCaP cell lysates were prepared after incubation with 1 nM R1881 for 72 h and analyzed for co-immunoprecipitation of AR and JunD.

SSAT promoter = SSAT promoter luciferase reporter in LNCaP cells; assay type: cell-based, human; conditions: 1 nM R1881, 72 h
Method: The full length (FL) SSAT promoter sequence, kindly provided by Dr. Robert Casero (Johns Hopkins University, Baltimore, Md.), was amplified and cloned into pGL4-basic vector (Promega) with a firefly luciferase reporter gene. This vector, pGL4-SSAT-luc, was transiently transfected into our published (20) JunD-silenced (siJunD) and vector control LNCaP cell lines. Briefly, 5×10^5 siJunD or vector control LNCaP cells were seeded, then transfected one day later with […] pGL4-SSAT-luc DNA construct using Lipofectamine2000 (Invitrogen). After transfection, cells were treated with 1 nM R1881 or left untreated for 72 h, then lysed. Luciferase activity was measured in cell lysates by a luciferase assay system kit (Promega) following the manufacturer-supplied protocol.
The effect of AR activation by androgen on transcriptional activity of full length SSAT promoter and the necessity of JunD for such effect was studied in LNCaP cells stably transfected with either junD silenced (siJunD) or control vector that were then transiently transfected with a full length SSAT promoter-firefly luciferase reporter vector (FLSSAT-luc) followed by androgen treatment (FIGS. 4A,B). Androgen treatment (1 nM R1881) caused a significant>16-fold increase in SSAT promoter activity in vector control LNCaP cells (Control) compared to corresponding untreated cells (FIG. 4A, P=0.03). […]

[1] = target: T1, Androgen Receptor Ligand Binding Domain (AR-LBD) (Rattus norvegicus, UniProt P15207); test: fluorescence polarization assay for AR-LBD binding; conditions: bicalutamide positive control
T1 sequence (P15207 651-882 limits assumed): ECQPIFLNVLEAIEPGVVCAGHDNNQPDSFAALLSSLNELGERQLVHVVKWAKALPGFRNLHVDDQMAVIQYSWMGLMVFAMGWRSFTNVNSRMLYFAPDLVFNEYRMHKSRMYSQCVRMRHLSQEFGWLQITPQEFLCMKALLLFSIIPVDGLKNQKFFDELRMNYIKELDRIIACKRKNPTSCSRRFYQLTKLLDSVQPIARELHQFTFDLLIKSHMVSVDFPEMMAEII
Description: Binding of bicalutamide with AR-LBD was used as a positive control.
Bicalutamide is used as a positive control.

LNCaP cells [2] = test: growth inhibition of LNCaP cells; assay type: cell-based, human; set-up: concentration range of cell growth inhibition: unit not given here; conditions: presence and absence of R1881
Method: (§1) Culture conditions for LNCaP androgen response studies included use of cells passage 40-90, hormone depleted media containing 4% charcoal-stripped FBS plus 1% non-stripped FBS (F1C4), and synthetic androgen R1881 (methyltrienolone; NEN, Boston, Mass.) at 1 nM for maximal induction of JunD and ROS as described before (17,19,20). For AR-JunD interaction studies in AR-transfected Hep3B cells, R1881 was used at 2 nM in F1C4 medium to maximally induce the AR.
(§2) Graded concentrations of each of the 8-10 designed peptides identified herein are further tested for their ability to inhibit growth of androgen-dependent LNCaP and LAPC-4 cells using a DNA fluorescence assay and androgen-induced ROS using DCFH dye oxidation assay.

LNCaP cells [3] = test: DCF dye oxidation assay, ROS in LNCaP cells; assay type: cell-based, human
Description: Described herein are tests for the effect of these three compounds on the androgen-induced ROS production in androgen-dependent LNCaP cells using the DCF dye oxidation assay (see the complete proposal). All data were normalized to the DCF dye fluorescence of control untreated LNCaP cells and expressed as percent of control.
as §1, §2

human CaP cells = test: androgen-induced ROS production in human CaP cells; assay type: cell-based; conditions: pretreatment
Description: (§3) Described herein are molecules, such as for example, N,N′-butadienyl-butanediamine inhibitor of APAO or one of its pro-drugs or analogs, as shown in the figures disclosed herein in this application. […] SSAT promoter sequence, however, contains no AR-binding element (ARE).

[4] = tested on: TRansgenic Adenocarcinoma in Mouse Prostate (TRAMP) animals; test: TRAMP mouse model of prostate cancer; assay type: in vivo
Description: as §3

For C[C@]1(O)CC[C@H]2[C@@H]3CCC4=CC(=O)CCC4=C3C=C[C@@]21C [R1881, methyltrienolone], the “increase in SSAT mRNA (treated/untreated)” value (SSAT mRNA; JunD silenced (siJunD) LNCaP cells) was roughly 10 fold, the “increase in SSAT mRNA (treated/untreated)” value (SSAT mRNA; vector control LNCaP cells) was ~25 fold and > 25 fold and the “increase in reconstituted Gaussia luciferase activity versus untreated cells” value (JunD-AR complex) was ~10 fold and > 5 fold. For the same compound, the “increase of AR-JunD immunocomplex in nuclear fraction” value (AR-JunD immunocomplex) was “approximately 3 fold”, the “increase in SSAT promoter activity” value (SSAT promoter; siJunD LNCaP) was “small increase” and the “increase in SSAT promoter activity” value (SSAT promoter; vector control LNCaP) was greater than 16 fold.
In the case of O=C(O)CN(CC(=O)O)N1C(=O)c2ccccc2C1=O [2,2′-(1,3-dioxoisoindolin-2-ylazanediyl)diacetic acid], the “AR-LBD binding / anti-androgenic properties” value [1] is reported as “no AR-LBD binding property; also recorded: no anti-androgenic properties” and the “concentration of growth inhibition” value (LNCaP cells [2]) is reported as “sub-micromolar”.
In the case of COC(=O)CN(N)CC(=O)OC [dimethyl 2,2′-(hydrazine-1,1-diyl)diacetate], the “AR-LBD binding / anti-androgenic properties” value [1] is reported as “interaction with the AR-LBD that is comparable with that of bicalutamide”, the “concentration range of cell growth inhibition” value (LNCaP cells [2]) is reported as 1-10 and the “effect on ROS levels under any condition” value (LNCaP cells [3]; LNCaP with or without R1881) is reported as “no effect on the ROS levels”. For the same compound, the melting point was 166 °C.
In the case of NN(CC(=O)O)CC(=O)O, the “AR-LBD binding / anti-androgenic properties” value [1] is reported as “no AR-LBD binding property; also recorded: no anti-androgenic properties”, the “concentration of growth inhibition” value (LNCaP cells [2]) is reported as “sub-micromolar” and the “reduction of ROS levels in cells not treated with R1881” value (LNCaP cells [3]; LNCaP without R1881) is reported as “weak activity in reducing ROS levels”.
With C=C=CCNCCCCNCC=C=C [N,N′-butadienyl-butanediamine] the “androgen-induced ROS production” value (human CaP cells) was “completely blocks”, the CaP progression [4] was “significantly prevents” and the “oxidative stress in the prostate” value [4] was “markedly reduces”.
